Paper PMC12408707, “Daunorubicin and its hydroxy metabolite in cardiomyocytes: insights into cellular kinetics, toxicity, DNA damage, and dexrazoxane-induced cardioprotection” (Archives of Toxicology, 2025)

Target: T1, topoisomerase IIβ (TOP2B) (Homo sapiens, UniProt Q02880)
T1 construct: recombinant human TOP2B enzyme (Inspiralis)
Assay: kDNA decatenation assay with recombinant human TOP2B, agarose gel
Assay type: biochemical

T1 sequence (Q02880 2-1626): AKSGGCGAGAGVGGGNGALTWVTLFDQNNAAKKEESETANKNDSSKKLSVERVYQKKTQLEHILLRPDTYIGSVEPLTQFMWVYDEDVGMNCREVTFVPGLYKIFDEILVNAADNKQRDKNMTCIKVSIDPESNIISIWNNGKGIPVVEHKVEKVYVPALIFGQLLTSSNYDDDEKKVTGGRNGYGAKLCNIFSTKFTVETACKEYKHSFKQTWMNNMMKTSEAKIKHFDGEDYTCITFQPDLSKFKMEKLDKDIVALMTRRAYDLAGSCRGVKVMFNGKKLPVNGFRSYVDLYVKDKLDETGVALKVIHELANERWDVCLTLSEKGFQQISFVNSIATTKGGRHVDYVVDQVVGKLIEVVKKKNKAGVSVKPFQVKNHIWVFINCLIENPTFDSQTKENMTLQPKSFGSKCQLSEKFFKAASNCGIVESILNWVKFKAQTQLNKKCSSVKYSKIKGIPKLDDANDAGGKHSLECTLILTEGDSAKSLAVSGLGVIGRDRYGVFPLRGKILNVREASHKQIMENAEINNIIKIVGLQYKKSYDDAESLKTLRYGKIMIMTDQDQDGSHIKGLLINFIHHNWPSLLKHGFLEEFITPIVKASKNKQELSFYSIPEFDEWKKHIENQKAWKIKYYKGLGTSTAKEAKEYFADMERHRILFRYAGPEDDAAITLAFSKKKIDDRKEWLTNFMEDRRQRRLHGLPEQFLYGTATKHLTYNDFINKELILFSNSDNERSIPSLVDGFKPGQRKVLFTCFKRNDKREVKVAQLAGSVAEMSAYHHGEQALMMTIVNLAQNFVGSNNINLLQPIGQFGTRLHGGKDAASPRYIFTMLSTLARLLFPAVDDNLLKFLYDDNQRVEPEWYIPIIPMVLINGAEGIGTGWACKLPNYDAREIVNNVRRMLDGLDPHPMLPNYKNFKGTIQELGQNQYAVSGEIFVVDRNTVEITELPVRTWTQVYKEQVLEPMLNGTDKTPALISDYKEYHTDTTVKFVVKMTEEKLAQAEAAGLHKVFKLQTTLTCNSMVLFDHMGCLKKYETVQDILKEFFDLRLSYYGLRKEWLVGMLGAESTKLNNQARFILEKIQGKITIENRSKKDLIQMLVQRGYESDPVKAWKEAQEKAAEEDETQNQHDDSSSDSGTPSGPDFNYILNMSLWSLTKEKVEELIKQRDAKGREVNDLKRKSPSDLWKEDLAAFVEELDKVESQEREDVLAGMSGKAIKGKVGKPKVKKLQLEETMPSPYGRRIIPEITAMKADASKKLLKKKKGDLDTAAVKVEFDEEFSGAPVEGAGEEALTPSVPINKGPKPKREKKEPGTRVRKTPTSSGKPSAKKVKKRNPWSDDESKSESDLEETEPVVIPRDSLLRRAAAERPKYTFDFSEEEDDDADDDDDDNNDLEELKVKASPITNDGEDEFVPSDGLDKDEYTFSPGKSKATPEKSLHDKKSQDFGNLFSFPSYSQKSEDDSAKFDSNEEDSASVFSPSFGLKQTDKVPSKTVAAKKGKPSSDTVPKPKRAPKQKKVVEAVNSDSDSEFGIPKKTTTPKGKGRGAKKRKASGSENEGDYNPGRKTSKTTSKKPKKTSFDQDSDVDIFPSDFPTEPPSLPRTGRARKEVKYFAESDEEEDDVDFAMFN

| Compound | IC50 [µM] |
| --- | --- |
| COc1cccc2c1C(=O)c1c(O)c3c(c(O)c1C2=O)C[C@@](O)(C(C)=O)C[C@@H]3O[C@H]1C[C@H](N)[C@H](O)[C@H](C)O1 [DAU, daunorubicin] | 4 ± 1 |
| COc1cccc2c1C(=O)c1c(O)c3c(c(O)c1C2=O)C[C@@](O)(C(C)O)C[C@@H]3O[C@H]1C[C@H](N)[C@H](O)[C@H](C)O1 (some centres unmarked) [DAU-ol, daunorubicinol] | 17 ± 4 |
